We go through one compound from publication PMC6934700, “Structure-Guided Design of a Fluorescent Probe for the Visualization of FtsZ in Clinically Important Gram-Positive and Gram-Negative Bacterial Pathogens” (Scientific Reports, 2019).

≈ marks a conversion by molar mass, not a printed value. Where two headings read alike, the source gives them in different places.

The target in one assay is T1, P. aeruginosa (PaFtsZ) (Pseudomonas aeruginosa, UniProt P47204).
T1 construct: 6xHis (C); made in house; host or cells: E. coli BLR (DE3), pET-22b(+)
T1 sequence (P47204 1-394): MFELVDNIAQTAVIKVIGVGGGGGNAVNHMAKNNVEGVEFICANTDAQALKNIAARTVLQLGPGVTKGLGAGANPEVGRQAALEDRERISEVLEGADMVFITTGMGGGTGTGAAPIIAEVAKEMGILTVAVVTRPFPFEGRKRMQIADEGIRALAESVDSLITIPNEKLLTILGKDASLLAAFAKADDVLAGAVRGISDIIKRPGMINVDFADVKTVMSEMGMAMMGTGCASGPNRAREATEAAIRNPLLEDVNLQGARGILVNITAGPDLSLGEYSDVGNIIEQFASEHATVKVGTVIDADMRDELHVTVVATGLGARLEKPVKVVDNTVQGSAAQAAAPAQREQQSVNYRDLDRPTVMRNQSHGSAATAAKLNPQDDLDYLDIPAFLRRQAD
The assay is described as follows: Fluorescence anisotropy binding of BOFP to PaFtsZ. The following applies: for Kd: 50 mM Tris-HCl (pH 7.6), 50 mM KCl, 0.1 µM BOFP. The procedure: Fluorescence anisotropy experiments were performed using an AVIV model ATF105 spectrofluorometer at 15, 25, or 37 °C. In these experiments, bandwidths were set to 4 nm in both the excitation and emission directions, with the excitation and emission wavelengths being set at 488 nm and 510 nm, respectively. BOFP (0.1 µM) was titrated with increasing concentrations (ranging from 0 to 12 µM) of FtsZ in 120 µL of buffer containing 50 mM Tris-HCl (pH 7.6) and 50 mM KCl. After each protein addition, the samples were equilibrated for 3 minutes, whereupon the fluorescence anisotropy was measured.
In this equation, r0 is the anisotropy of the protein-free compound, r∞ is the anisotropy of the compound in the presence of an infinite concentration of FtsZ, [C]tot is the total concentration of the compound, and [P]tot is the total concentration of protein with each addition. These analyses yielded the equilibrium dissociation constant (Kd) for each binding reaction.
The binding free energy (ΔG) at temperature T was derived from the corresponding Kd value determined at T using the following relationship:2 ΔG=−RTln(1/Kd)
The binding enthalpy (ΔH) and entropy (ΔS) were derived from linear fits of the ln(1/Kd) vs. 1/T plots shown in Figs. 3f and 5e using the following relationship:3 ln(1/Kd)=−ΔH/R(1/T)+ΔS/R
In comparative control experiments, the anisotropy of 0.1 µM BODIPY FL-COOH or BOFP alone or in the presence of SaFtsZ (10 µM), SpyFtsZ (10 µM), KpFtsZ (2 µM), or PaFtsZ (2 µM) was measured at 37 °C in the same buffer described above.

The next assay has as its system S. aureus NRS705 (MRSA). The assay is described as follows: MIC assay by broth microdilution. Type of assay: cell-based, Staphylococcus aureus. To be noted: Staphylococcus aureus; MRSA NRS705; TH broth; ≥90% growth inhibition after 18-24 hours. The procedure: MIC assays of 1, 3, and BOFP were conducted by standard broth microdilution in TH media. Briefly, log-phase S. aureus NRS705 (MRSA) cells were added to 96-well microtiter plates (at 5 × 10^5 CFU/mL) containing 2-fold serial dilutions of each test compound in 0.1 mL of TH broth, with each compound concentration being present in duplicate. The MIC is defined as the lowest compound concentration at which growth is ≥90% inhibited after 18-24 hours of aerobic growth.

Assay [1] addresses T2, FtsZ in E. faecalis ATCC 29212 cells (Enterococcus faecalis, UniProt O08439).
T2 construct: host or cells: E. faecalis ATCC 29212
The experiment in a line: FtsZ visualization by fluorescence microscopy in live cells. Format: cell-based. The following applies: 1 µg/mL for 5 minutes. The procedure: (§1) All differential interference contrast (DIC) and fluorescence microscopy experiments were conducted using an Olympus BX50 microscope equipped with an X-cite Exacte 200 W mercury lamp, a 100× Olympus UPLSAPO oil immersion objective (1.40 aperture), as well as both Chroma ET-EGFP (FITC/Cy2) and ET mCherry, Texas Red filters. Images were captured using a QImaging Retiga R3 charge-coupled device (CCD) camera and the Ocular-Version 2.0 software package (QImaging).
(§2) For visualizing FtsZ in Gram-positive bacteria using BOFP, the bacterial cells were grown to log-phase in media suitable for each individual pathogen. Specifically, S. aureus NRS705 (MRSA) was grown in tryptic soy broth (TSB), E. faecalis ATCC 29212 and E. faecium ATCC 19434 were grown in lactobacilli MRS broth, S. agalactiae ATCC 12386 and S. pneumoniae ATCC 49619 were grown in TH broth, and S. pyogenes ATCC 19615 was grown in CAMH broth supplemented with 3% (v/v) LHB. For each Gram-positive bacterial strain, a total of 1 mL of cell culture was centrifuged at 15,000 × g for 1 minute and washed 2–3 times with 1 mL of PBS. After the final wash, the pelleted cells were resuspended in 500 µL of PBS containing 1 µg/mL of BOFP and incubated in the dark for 5 minutes at room temperature. The cells were then centrifuged at 15,000 × g for 1 minute, washed twice with 1 mL of PBS, and subsequently resuspended in 200 µL of PBS. […]

Assay [2] has as its system FtsZ in S. agalactiae ATCC 12386 cells. The description is as above. Format: cell-based, Streptococcus agalactiae. To be noted: 1 µg/mL for 5 minutes. Here is the method: as §1, §2

T2 sequence (O08439 whole entry): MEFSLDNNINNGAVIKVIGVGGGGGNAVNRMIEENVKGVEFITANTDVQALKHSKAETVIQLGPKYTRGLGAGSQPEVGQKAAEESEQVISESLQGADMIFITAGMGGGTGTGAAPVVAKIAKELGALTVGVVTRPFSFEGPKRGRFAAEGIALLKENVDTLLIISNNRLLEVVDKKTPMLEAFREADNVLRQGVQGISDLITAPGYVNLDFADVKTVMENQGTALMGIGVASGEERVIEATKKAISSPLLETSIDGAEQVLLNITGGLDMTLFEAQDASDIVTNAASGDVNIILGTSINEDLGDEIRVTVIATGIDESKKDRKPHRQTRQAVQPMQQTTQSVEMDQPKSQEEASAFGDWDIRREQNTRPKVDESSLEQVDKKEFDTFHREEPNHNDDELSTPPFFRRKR

The Kd is the free concentration of one partner at which half of the binding sites on the other are occupied at equilibrium, for simple one-to-one binding. As usually defined, the MIC is the lowest concentration found to suppress growth. Low readings indicate a more susceptible organism, high ones a less susceptible organism. Consider `CC1=CC(C)=[N+]2C1=Cc1ccc(CCC(=O)OCC(Oc3ccc(F)c(C(N)=O)c3F)c3nc(-c4ccc(C(F)(F)F)cc4)c(Br)o3)n1[B-]2(F)F` (centres unmarked) [BOFP], for which the Kd at P. aeruginosa (PaFtsZ) (15 °C, read-out: Kd - 15 °C) stood at 230 ± 20 nM; at P. aeruginosa (PaFtsZ) (25 °C, read-out: Kd - 25 °C), 360 ± 60 nM; at P. aeruginosa (PaFtsZ) (37 °C, read-out: Kd - 37 °C) it was 580 ± 60 nM. Also, the ΔG on P. aeruginosa (PaFtsZ) (calculated at T = 310 K (37 °C) from Kd) was -8.8 ± 0.1 kcal/mol. Besides, on P. aeruginosa (PaFtsZ) (from linear fit of ln(1/Kd) vs. 1/T), the ΔH is -7.7 ± 0.2 kcal/mol. The MIC in the assay on S. aureus NRS705 (MRSA) is 1 µg/mL (≈ 1.28 µM). Also, the “Fluorescence staining / FtsZ labeling in live cells” value in assay [1] and in assay [2] was “bright bands of fluorescence staining are clearly visible at midcell” throughout.
